The results in this text go back to ChEMBL document CHEMBL1129749, “Nudicauline and elatine as potent norditerpenoid ligands at rat neuronal alpha-bungarotoxin binding sites: importance of the 2-(methylsuccinimido)benzoyl moiety for neuronal nicotinic acetylcholine receptor binding” (J Med Chem, 1996).

Molecules are shown by their SMILES.

Chain of Neuronal acetylcholine receptor subunit alpha-7 (Q05941 whole entry): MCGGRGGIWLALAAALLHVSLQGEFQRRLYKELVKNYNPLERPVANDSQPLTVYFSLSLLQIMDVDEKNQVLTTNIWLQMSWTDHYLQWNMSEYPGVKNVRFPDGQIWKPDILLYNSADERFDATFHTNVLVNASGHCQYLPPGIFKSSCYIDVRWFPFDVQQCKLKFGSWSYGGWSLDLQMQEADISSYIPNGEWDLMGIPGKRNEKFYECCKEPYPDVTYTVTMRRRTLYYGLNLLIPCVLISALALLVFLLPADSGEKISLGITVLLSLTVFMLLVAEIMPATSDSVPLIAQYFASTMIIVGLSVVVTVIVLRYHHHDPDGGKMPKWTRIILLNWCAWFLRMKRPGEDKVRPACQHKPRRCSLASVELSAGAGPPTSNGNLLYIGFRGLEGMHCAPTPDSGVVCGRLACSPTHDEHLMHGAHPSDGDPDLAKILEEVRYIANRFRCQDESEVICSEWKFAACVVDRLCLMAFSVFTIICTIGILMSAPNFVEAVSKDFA

This test concerns the target Neuronal acetylcholine receptor subunit alpha-7 (Rattus norvegicus, UniProt Q05941). The test can be described thus: Binding affinity of Norditerpenoid Alkaloids at rat neuronal alpha7-type nicotinic acetylcholine receptor.
Regarding `CCN1C[C@]2(OC(=O)c3ccccc3N)CC[C@H](OC)[C@]34C1[C@@H](CC23)[C@@]1(O)C[C@H](OC)[C@H]2CC4[C@]1(O)[C@H]2OC` (some centres undefined), the IC50 came out at 6.8 µM. For `CCN1C[C@]2(OC(=O)c3ccccc3NC(C)=O)CC[C@H](OC)[C@@]34[C@@H]2C[C@@H]([C@@H]13)[C@@]1(O)C[C@H](OC)[C@H]2C[C@@H]4[C@]1(O)[C@H]2OC` the value was 96 µM.

`CCN1C[C@]2(COC)CC[C@H](O)[C@@]34C5C[C@@H]6[C@@H](OC)C[C@](O)(C(CC23)C14)C5[C@H]6OC(C)=O` (some centres undefined) [CONDELPHINE] returned an IC50 of 1.6 µM. The figure for `CCN1C[C@]2(COC)CC[C@H](OC)[C@]34C5C[C@@H]6[C@@H](OC)C[C@@]7(OCO[C@@]7(C13)[C@@H](O)C24)C5[C@H]6OC` (some centres undefined) [DELCORINE] is 53 µM. The figure for `CCN1C[C@]2(COC)CC[C@H](O)[C@]34C1[C@@](O)([C@@H](OC)[C@H]23)[C@@]1(O)C[C@H](OC)[C@H]2C[C@@H]4[C@@H]1[C@H]2OC` [DELSOLINE] is 19 µM; for `CCN1C[C@]2(C)CC[C@H](OC)[C@@]34C1[C@]1(OCO[C@@]15C[C@H](OC)[C@H]1C[C@]3(O)[C@@H]5[C@H]1OC)[C@@H](OC(C)=O)[C@H]24` [DELTALINE] it is 110 µM; for `CCN1C[C@]2(COC(=O)c3ccccc3N3C(=O)C[C@H](C)C3=O)CC[C@H](OC)[C@@]34C1[C@@]1(OCO[C@@]15C[C@H](OC)[C@H]1C[C@@H]3[C@@H]5[C@H]1OC)[C@@H](OC)[C@H]24` [ELATINE] it is 0.0061 µM. Molecule `CCN1C[C@]2(CO)CC[C@H](OC)[C@@]34[C@@H]5C[C@H]6[C@H](OC)[C@@H]5[C@](O)(C[C@@H]6OC)[C@](O)([C@@H](OC)[C@H]23)[C@@H]14` [LYCOCTONINE] returned an IC50 of 10 µM.

Regarding `CCN1C[C@]2(COC(=O)c3ccccc3N3C(=O)C[C@H](C)C3=O)CC[C@H](OC)[C@]34C5C[C@@H]6[C@@H](OC)C[C@@](O)(C5[C@H]6OC(C)=O)[C@](O)(C13)[C@@H](OC)C24` (some centres undefined) [NUDICAULINE], the IC50 was 0.0017 µM.

What is called IC50 is the midpoint of a concentration-inhibition curve. Lower therefore signals inhibition by little substance.
